This test concerns the target Protein farnesyltransferase/geranylgeranyltransferase type-1 subunit alpha (Bos taurus, UniProt P29702). As to the kind of experiment: PFT IC50 Determination. As to conditions: pH 7.5; 37 °C. Here is the method:
Assays for PFT activity were performed with a PFT-specific scintillation assay (SPA) kit (Amersham Biosciences, Piscataway, NJ). IC50 values were calculated using linear regression analysis of the plots of [3H] farnesyl pyrophosphate (FPP) prenylation versus concentration of compounds.

On to `CSCC[C@H](NC(=O)[C@@H](Cc1ccc(O)c(C)c1C)NC(=O)[C@@H](NC(=O)[C@H](CS)NC=O)C(C)C)C(=O)O` [Cmpound XI], for which the IC50 was more than 100 µM. As for `CSCC[C@H](NC(=O)[C@H](Cc1ccc(O)c(C)c1C)NC(=O)[C@@H](NC(=O)[C@@H](N)CS)C(C)C)C(=O)O` [(2S)-2-[(2S)-2-[(2S)-2-[(2R)-2-amino-3-sulfanylpropanamido]-3-methylbutanamido]-3-(4-hydroxy-2,3-dimethylphenyl)propanamido]-4-(methylsulfanyl)butanoic acid], the figure is 0.1 µM.

Source of the values: BindingDB's records for doi:10.1021/jm0506165 (Universita Di Napoli Federico Ii, 2006).
